Data set [1] relates to S. aureus NCTC 5655. As to the kind of experiment: microbe, parasite or virus in culture. The format is cell-based. As to conditions: Staphylococcus aureus, NCTC5655, Erythrocyte, in Ovis aries, read-out: IC50 (antihemolytic).
Data set [2] concerns S. aureus 8325-4. Put plainly: microbe, parasite or virus in culture. The following applies: Staphylococcus aureus, 83254, Erythrocyte, in Ovis aries, read-out: IC50 (antihemolytic). The class given is cell-based.
Data set [3] deals with S. aureus NCTC 5655. Put plainly: microbe, parasite or virus in culture. The class given is cell-based, Staphylococcus aureus. The following applies: for MBC: Staphylococcus aureus, NCTC5655, 24 h, read-out: Minimal bactericidal concentration MBC.
In data set [4] the test system is S. aureus 8325-4. Put plainly: microbe, parasite or virus in culture. The class given is cell-based, Staphylococcus aureus. As to conditions: for MBC: Staphylococcus aureus, 83254, 24 h, read-out: Minimal bactericidal concentration MBC.
The test system of a further data set is erythrocyte membrane. The format is cell-based, sheep.
Data set [5] addresses T1, S. aureus α-hemolysin (αHL) (Staphylococcus aureus, UniProt P09616). As to conditions: sheep.
Data set [6] has as its target T1, S. aureus α-hemolysin (αHL). Put plainly: cell-based.

Converted amounts (≈) assume the structure as drawn. “And” between values parts separate entries of the source, which are not always exact repeats. Identical values can stand only once.

T1 sequence (P09616 27-319 limits assumed): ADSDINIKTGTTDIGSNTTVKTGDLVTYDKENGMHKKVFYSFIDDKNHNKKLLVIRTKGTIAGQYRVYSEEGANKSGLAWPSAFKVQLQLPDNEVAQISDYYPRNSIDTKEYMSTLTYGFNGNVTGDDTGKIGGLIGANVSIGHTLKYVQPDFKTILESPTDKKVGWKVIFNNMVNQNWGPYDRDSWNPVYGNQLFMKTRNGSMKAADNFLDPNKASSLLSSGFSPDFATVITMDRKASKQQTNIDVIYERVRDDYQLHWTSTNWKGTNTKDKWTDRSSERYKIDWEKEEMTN

A word on the IC50: it is the concentration that inhibits the measured activity by half. Consider `O=C(OC1C(O)C(CO)OC2OC(=O)c3cc(Oc4c(C(=O)O)cc(O)c(O)c4O)c(O)c(O)c3-c3c(cc(O)c(O)c3O)C(=O)OC21)c1cc(O)c(O)c(O)c1` [Compound T3, 3-O-galloyl-1,2-valoneoyl-β-D-glucose], for which the IC50 with S. aureus NCTC 5655 [1] amounted to 90.6 ± 22.7 µM; in the data set with S. aureus 8325-4 [2] it was 52.2 ± 1.2 µM; in data set [6], 27.5 ± 1.06 µM. Also, the MBC in the data set with S. aureus NCTC 5655 [3] and with S. aureus 8325-4 [4] was 100 µM (≈ 80.3 µg/mL) in each case. Further, the “order parameter S/S0” value with erythrocyte membrane is 0.947 ± 0.028 and 0.911 ± 0.042. The “increase of IC50 after washing of erythrocytes” value in data set [5] was “approximately 40 fold”.
For the compound `O=C(OCC1OC(OC(=O)c2cc(O)c(O)c(O)c2)C(OC(=O)c2cc(O)c(O)c(O)c2)C(OC(=O)c2cc(O)c(O)c(OC(=O)c3cc(O)c(O)c(O)c3)c2)C1OC(=O)c1cc(O)c(O)c(O)c1)c1cc(O)c(O)c(OC(=O)c2cc(O)c(O)c(O)c2)c1` [Compound T1, 3,6-bis-O-di-O-galloyl-1,2,4-tri-O-galloyl-β-D-glucose], the IC50 in the data set on S. aureus NCTC 5655 [1] came out at 7.26 ± 0.29 µM; in the data set with S. aureus 8325-4 [2], 8.7 ± 0.81 µM; in data set [6], 2.94 ± 1.45 µM. In addition, the MBC with S. aureus NCTC 5655 [3] is 25 µM (≈ 31.1 µg/mL); with S. aureus 8325-4 [4], 50 µM (≈ 62.2 µg/mL).
`O=C(OC1OC2COC(=O)c3cc(Oc4c(C(=O)O)cc(O)c(O)c4O)c(O)c(O)c3-c3c(cc(O)c(O)c3O)C(=O)OC2C(O)C1OC(=O)c1cc(O)c(O)c(O)c1)c1cc(O)c(O)c(O)c1` [Compound T4, 1,2-di-O-galloyl-4,6-valoneoyl-β-D-glucose]: the IC50 is 59.5 ± 9.6 µM in the data set on S. aureus NCTC 5655 [1], 60.4 ± 3.3 µM in the data set on S. aureus 8325-4 [2] and 14.5 ± 1.1 µM in data set [6]. Besides, the “Minimal bactericidal concentration MBC” value with S. aureus NCTC 5655 [3] and with S. aureus 8325-4 [4] was 75 µM (≈ 71.6 µg/mL) each time. The MBC in the data set on S. aureus NCTC 5655 [3] and in the data set with S. aureus 8325-4 [4] was 100 µM (≈ 95.5 µg/mL) in each case. The “order parameter S/S0” value in the data set on erythrocyte membrane is 1.074 ± 0.059 and 0.885 ± 0.073. Moreover, the “increase of IC50 after washing of erythrocytes” value in data set [5] is “approximately 40 fold”.
In the case of `O=C(OCC1OC(OC(=O)c2cc(O)c(O)c(O)c2)C(OC(=O)c2cc(O)c(O)c(O)c2)C(OC(=O)c2cc(O)c(O)c(O)c2)C1OC(=O)c1cc(O)c(O)c(O)c1)c1cc(O)c(O)c(O)c1` [Compound T2, 1,2,3,4,5-penta-O-galloyl-β-D-glucose], the IC50 in the data set with S. aureus NCTC 5655 [1] was 13 ± 1.18 µM; in the data set on S. aureus 8325-4 [2], 22.4 ± 2.8 µM; in data set [6] it was 3.52 ± 1.37 µM. For the same compound, the MBC with S. aureus NCTC 5655 [3] is 50 µM (≈ 47 µg/mL); in the data set with S. aureus 8325-4 [4] it was 75 µM (≈ 70.6 µg/mL). In the data set on erythrocyte membrane, the “order parameter S/S0” value is 1.267 ± 0.0398 and 0.662 ± 0.072.

For the origin of these results see article PMC7341856 (Scientific Reports, 2020).
